Patent US20210094922A1, “Dyes for Analysis of Soluble Protein Aggregates or Misfolded Protein Oligomers” (The Penn State Research Foundation, priority 2018, published 2021)
“Also recorded” adds a separate entry of the source.

Experiments:
SOD1(V31A)-Halo [1] = biological target: SOD1(V31A)-Halo (Rhodococcus rhodochrous, UniProt P0A3G2, A155T/A167V/A172T/A224E/C128F/C176G/D78G/E160K/E257K/H272N/K175M/K195N/L47V/L88M/N227D/P291S/S58T/T264A/Y273L/Y87F); assay: AggTag imaging of NaAsO2-induced SOD1(V31A)-Halo aggregation in HEK293T cells; type: cell-based, human; parameters: expressed in transfected cells; host or cells: HEK293T
Sequence of SOD1(V31A)-Halo (Rhodococcus rhodochrous, UniProt P0A3G2, A155T/A167V/A172T/A224E/C128F/C176G/D78G/E160K/E257K/H272N/K175M/K195N/L47V/L88M/N227D/P291S/S58T/T264A/Y273L/Y87F) (P0A3G2 other isoform, or with tags, fused parts or gaps with the stated changes): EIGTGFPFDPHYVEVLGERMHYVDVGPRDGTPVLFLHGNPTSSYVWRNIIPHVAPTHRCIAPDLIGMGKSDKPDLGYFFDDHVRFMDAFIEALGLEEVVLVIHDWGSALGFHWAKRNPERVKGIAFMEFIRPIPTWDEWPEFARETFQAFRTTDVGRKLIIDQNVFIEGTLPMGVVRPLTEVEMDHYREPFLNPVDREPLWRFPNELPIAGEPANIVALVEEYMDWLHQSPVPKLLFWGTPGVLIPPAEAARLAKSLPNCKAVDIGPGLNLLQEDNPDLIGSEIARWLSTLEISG
Description: (§1) During protein expression, medium is supplemented with 1 μM of coumarin ligand and 1 μM of 4 to enable a simultaneous dual-probe labeling to Halo-Tag. Note: Halo-Tag locates in both cytoplasm and nucleus. Blue: fluorescence from the Halo-Tag⋅coumarin conjugate. Red: fluorescence from the Halo-Tag-4 conjugate. Scale bar: 10 μm.
(§2) Confocal microscope imaging. The HEK293T cells were seeded at 25% confluency 24 h prior to transfection in poly-D-lysine coated 35 mm glass bottom dishes (MatTek Corporation). Cells were grown in DMEM media supplemented with 10% FBS and Penicillin-Streptomycin antibiotics until they reached 50-60% confluency. Transfection was carried out using X-tremeGene™ 9 DNA transfection reagent (Roche) according to the manufacturer's instructions. Proteins were expressed for 24 h prior to analyses. To label proteins with Halo-Tag fusion, protein expression was carried out in the presence of 1 μM 4 or 1 μM TMR Halo-Tag ligand to form covalent conjugate with the Halo-Tag domain. For a dual-probe labeling scheme, 1 μM 4 and 1 μM coumarin Halo-Tag ligand to simultaneously form covalent conjugate with the Halo-Tag domain.
(§3) HEK293T cultures were seeded at 25% confluency 24 h prior to transfection in 12-well plate for time dependent fluorescence plate reader analysis or 35 mm glass bottom culture dishes (Poly-d-lysine coated, MatTek Corporation). Cells were grown in DMEM medium supplemented with 10% FBS and penicillin-streptomycin antibiotics until they reached 50-60% confluency. Transfection was performed using X-tremeGene™ 9 DNA transfection reagent (Roche). After 24 h of protein expression and co-translational labeling, medium was replaced with fresh DMEM to diffuse out unbound ligands. After 30 min, media was replaced by fresh DMEM medium containing DMSO vehicle or NaAsO2 (50 μM). […] At indicated time points, fluorescence reading was obtained using a Tecan M1000Pro fluorescence plate reader. Fluorescence intensity was recorded at Ex=530 nm/Em=600 nm for 3 and Ex=450 nm/Em=480 nm for ThT. […] Fluorescence of 3 was measured at Ex=530 nm/Em=600 nm.

SOD1(V31A)-Halo [2] = biological target: SOD1(V31A)-Halo (UniProt P00441+P0A3G2, A155T/A167V/A172T/A224E/C128F/C176G/D78G/E160K/E257K/H272N/K175M/K195N/L47V/L88M/N227D/S58T/T264A/V32A/Y273L/Y87F); assay: as above; type: cell-based, human; parameters: expressed in transfected cells; host or cells: HEK293T; conditions: NaAsO2
Sequence of SOD1(V31A)-Halo (UniProt P00441+P0A3G2, A155T/A167V/A172T/A224E/C128F/C176G/D78G/E160K/E257K/H272N/K175M/K195N/L47V/L88M/N227D/S58T/T264A/V32A/Y273L/Y87F) (P00441+P0A3G2 fused with the stated changes): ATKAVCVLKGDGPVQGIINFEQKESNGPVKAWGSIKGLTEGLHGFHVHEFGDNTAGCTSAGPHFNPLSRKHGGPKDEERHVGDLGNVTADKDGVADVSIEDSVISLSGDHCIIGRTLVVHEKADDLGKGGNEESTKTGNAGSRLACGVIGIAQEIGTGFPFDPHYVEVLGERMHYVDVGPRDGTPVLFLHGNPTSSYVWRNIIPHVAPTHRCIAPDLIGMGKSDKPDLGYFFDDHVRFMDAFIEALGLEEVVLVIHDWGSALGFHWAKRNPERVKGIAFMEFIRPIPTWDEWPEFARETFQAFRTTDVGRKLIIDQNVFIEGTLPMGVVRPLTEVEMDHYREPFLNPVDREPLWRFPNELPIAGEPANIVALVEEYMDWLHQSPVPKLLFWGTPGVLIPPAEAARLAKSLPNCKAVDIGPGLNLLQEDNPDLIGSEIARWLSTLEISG
Description: as §1, §2, §3

CN(C)c1ccc(/C=C2N=C(/C=C/c3ccc(N(CCO)CCO)cc3)N(CC(=O)N[C@H]3CC[C@H](C(=O)NCCOCCOCCCCCCCl)CC3)C\2=O)cc1 [Compound 4, (1r,4r)-4-(2-((Z)-2-((E)-4-(bis(2-hydroxyethyl)amino)styryl)-4-(4-(dimethylamino)benzylidene)-5-oxo-4,5-dihydro-1H-imidazol-1-yl)acetamido)-N-(2-(2-((6-chlorohexyl)oxy)ethoxy)ethyl)cyclohexanecarboxamide]
fluorescence in cells co-expressing Halo-Tag and SOD1-V31A-GFP (SOD1(V31A)-Halo [1]; NaAsO2 stressor 50 μM, 18 h, 37° C.): turn-on fluorescence was not observed
fluorescence in cells expressing Halo-Tag alone under stress (SOD1(V31A)-Halo [1]; NaAsO2 stressor, Halo-4 conjugate): remained dark in stressed cells; also recorded: fluorescence was not observed
fluorescence of SOD1(V31A)-Halo labeled cells before and after stress (SOD1(V31A)-Halo [2]): dark before stress but exhibited both diffuse and punctate fluorescent structures in stressed cells
